# Source: the supplement of paper PMC10307832
# Key:
# Test in all cases: relative viability (nuclei count vs DMSO), 5 days (fraction); higher = more cells survive
# [1] = compound: C=CC(=O)N1CCC[C@@H](n2nc(-c3ccc(Oc4ccccc4)cc3)c3c(N)ncnc32)C1 [Ibrutinib] + CC(=O)Nc1cccc(-n2c(=O)n(C3CC3)c(=O)c3c(Nc4ccc(I)cc4F)n(C)c(=O)c(C)c32)c1 [Trametinib] (partner 0.02 µM)
# In short: (§1)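 Lung cancer cell lines in 1536-well plates were dosed by pin tool the day after seeding, either with one drug alone or with a fixed anchor-drug dose plus five library-drug doses (not always all listed) in √10 steps. After 5 days, cells were fixed and their nuclei stained in one step (final 0.05% Triton X-100, 1% formaldehyde, 1 ug/ml Hoechst), then counted on 4× images. Relative viability is the nuclei count in treated wells divided by that in vehicle wells. Values are medians of duplicate plates.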
# [2] = compound: C=CC(=O)N1CCC[C@@H](n2nc(-c3ccc(Oc4ccccc4)cc3)c3c(N)ncnc32)C1 [Ibrutinib] + CS(=O)(=O)N1CCN(Cc2cc3nc(-c4cccc5[nH]ncc45)nc(N4CCOCC4)c3s2)CC1 [Pictilisib] (partner 1 µM)
# In short: as §1
# [3] = compound: C=CC(=O)N1CCC[C@@H](n2nc(-c3ccc(Oc4ccccc4)cc3)c3c(N)ncnc32)C1 [Ibrutinib] + Cc1nc(Nc2ncc(C(=O)Nc3c(C)cccc3Cl)s2)cc(N2CCN(CCO)CC2)n1 [Dasatinib] (partner 0.075 µM)
# In short: as §1
# [4] = compound: C=CC(=O)N1CCC[C@@H](n2nc(-c3ccc(Oc4ccccc4)cc3)c3c(N)ncnc32)C1 [Ibrutinib] + Nc1ncn([C@H]2C[C@H](O)[C@@H](CO)O2)c(=O)n1 [Decitabine] (partner 2 µM)
# In short: as §1
cell line,measurement,setting,value
SK-MES-1,relative viability,[1]; first compound 0.005 µM,0.591
same,relative viability,[1]; first compound 0.01581 µM,0.467
same,relative viability,[1]; first compound 0.05 µM,0.36
same,relative viability,[1]; first compound 0.1581 µM,0.611
same,relative viability,[1]; first compound 0.5 µM,0.297
same,relative viability,[2]; first compound 0.005 µM,0.307
same,relative viability,[2]; first compound 0.01581 µM,0.274
same,relative viability,[2]; first compound 0.05 µM,0.254
same,relative viability,[2]; first compound 0.1581 µM,0.342
same,relative viability,[2]; first compound 0.5 µM,0.198
same,relative viability,[3]; first compound 0.005 µM,0.281
same,relative viability,[3]; first compound 0.01581 µM,0.211
same,relative viability,[3]; first compound 0.05 µM,0.194
same,relative viability,[3]; first compound 0.1581 µM,0.38
same,relative viability,[3]; first compound 0.5 µM,0.178
same,relative viability,[4]; first compound 0.005 µM,0.39
same,relative viability,[4]; first compound 0.01581 µM,0.359
same,relative viability,[4]; first compound 0.05 µM,0.335
same,relative viability,[4]; first compound 0.1581 µM,0.364
same,relative viability,[4]; first compound 0.5 µM,0.359
